According to paper PMC8695447, “Novel Small Molecules Capable of Blocking mtRAS-Signaling Pathway” (Frontiers in Oncology, 2021):

Tests used:
Ba/F3-NRAS-G12D cells = assay: Anti-proliferation assay (CellTiter Glo) on Ba/F3-NRAS-G12D; assay type: cell-based; details: Mus musculus, BaF3; 72 h treatment; average with SD (n = 3, duplicate)
Protocol: (§1) Ba/F3-parental, OCI-AML3, U397 cells were purchased from DSMZ. MDA-MB-231, HCT-116, AsPC-1, H358, HT-29, SW480, and DU-145 cells were obtained from KCLB. MDA-MB-468 cells were obtained from ATCC. All cells were maintained in RPMI with 10% FBS and antibiotics. Cells were grown in a humidified 5% CO2 incubator at 37°C. Ba/F3-parental cells were grown in the presence of 10 ng/ml IL-3. NRAS-G12D or NRAS-G12V transformed Ba/F3 cell lines (Ba/F3-NRAS-G12D, and Ba/F3-NRAS-G12V, respectively) were cultured without IL-3, which were established by the procedure described as previously ([30]).
(§2) Approximately 3.0 × 10^3 cells/well were seeded in a 96-well cell culture plate. After stabilization, 1/3 serially diluted compound in DMSO was treated to the cell. […] All GI50 values were obtained in duplicate with three independent assays and averages with standard deviation are presented.

Ba/F3-NRAS-G12V cells = assay: Anti-proliferation assay (CellTiter Glo) on Ba/F3-NRAS-G12V; assay type: cell-based; details: Mus musculus, BaF3; 72 h treatment; average with SD (n = 3, duplicate)
Protocol: as §1, §2

Ba/F3-parental cells = assay: Anti-proliferation assay (CellTiter Glo) on Ba/F3-parental; assay type: cell-based; details: Mus musculus, BaF3; 72 h treatment; with 10 ng/ml IL-3; average with SD (n = 3, duplicate)
Protocol: as §1, §2

H358 (KRAS-G12C) = assay: Anti-proliferation assay on H358; assay type: cell-based; details: Homo sapiens, NCI-H358; 72 h treatment; average with SD (n = 3, duplicate)
Protocol: as §1, §2

AsPC-1 (KRAS-G12D) = assay: Anti-proliferation assay on AsPC-1; assay type: cell-based; details: Homo sapiens, ASPC1; 72 h treatment; average with SD (n = 3, duplicate)
Protocol: as §1, §2

DU-145 (KRAS-G12V) = assay: Anti-proliferation assay on DU-145; assay type: cell-based; details: Homo sapiens, DU-145; 72 h treatment; average with SD (n = 3, duplicate)
Protocol: as §1, §2

SW480 (KRAS-G12V) = assay: Anti-proliferation assay on SW480; assay type: cell-based; details: Homo sapiens, SW480; 72 h treatment; average with SD (n = 3, duplicate)
Protocol: as §1, §2

HCT-116 (KRAS-G13D) = assay: Anti-proliferation assay on HCT-116; assay type: cell-based; details: Homo sapiens, HCT-116; 72 h treatment; average with SD (n = 3, duplicate)
Protocol: as §1, §2

MDA-MB-231 (KRAS-G13D) = assay: Anti-proliferation assay on MDA-MB-231; assay type: cell-based; details: Homo sapiens, MDA-MB-231; 72 h treatment; average with SD (n = 3, duplicate)
Protocol: as §1, §2

HT-29 (KRAS-Q61L) = assay: Anti-proliferation assay on HT-29; assay type: cell-based; details: Homo sapiens, HT-29; 72 h treatment; average with SD (n = 3, duplicate)
Protocol: as §1, §2

OCI-AML3 (NRAS-Q61L) = assay: Anti-proliferation assay on OCI-AML3; assay type: cell-based, human; details: Homo sapiens, OCI-AML-3; 72 h treatment; average with SD (n = 3, duplicate)
Protocol: as §1, §2

[1] = tested on: MDA-MB-468 (KRAS, NRAS-wt); assay: Anti-proliferation assay on MDA-MB-468; assay type: cell-based; details: Homo sapiens, MDA-MB-468; 72 h treatment; average with SD (n = 3, duplicate)
Protocol: as §1, §2

U937 (KRAS, NRAS-wt) = assay: Anti-proliferation assay on U937; assay type: cell-based; details: Homo sapiens, U-937; 72 h treatment; average with SD (n = 3, duplicate)
Protocol: as §1, §2

| Structure (SMILES) | GI50 (Ba/F3-NRAS-G12D cells) [nM] | GI50 (Ba/F3-NRAS-G12V cells) [nM] | GI50 (H358 (KRAS-G12C)) [nM] | GI50 (AsPC-1 (KRAS-G12D)) [nM] | GI50 (DU-145 (KRAS-G12V)) [nM] | GI50 (SW480 (KRAS-G12V)) [nM] | GI50 (HCT-116 (KRAS-G13D)) [nM] | GI50 (MDA-MB-231 (KRAS-G13D)) [nM] | GI50 (HT-29 (KRAS-Q61L)) [nM] | GI50 (OCI-AML3 (NRAS-Q61L)) [nM] | GI50 [1] [µM] | GI50 (U937 (KRAS, NRAS-wt)) [nM] | GI50 (Ba/F3-parental cells) [nM] |
| --- | --- | --- | --- | --- | --- | --- | --- | --- | --- | --- | --- | --- | --- |
| CCN1CCN(c2ccc(Nc3ncc4c(n3)N(C)C(=O)N(c3cc(NC(=O)c5cccc(C(F)(F)F)c5)ccc3C)C4)c(C(F)(F)F)c2)CC1 [Compound 8, N-(3-(7-((4-(4-Ethylpiperazin-1-yl)-2-(trifluoromethyl)phenyl)amino)-1-methyl-2-oxo-1,4-dihydropyrimido[4,5-d]pyrimidin-3(2H)-yl)-4-methylphenyl)-3-(trifluoromethyl)benzamide] | 1255 ± 6 | 944 ± 112 | 8980 ± 246 | 6650 ± 102 | 3990 ± 566 | 5790 ± 657 | 5810 ± 965 | 2790 ± 658 | 2140 ± 109 | 687 ± 154 | > 50 | 6060 ± 2180 | 3920 ± 722 |
| COc1cc(N2CCOCC2)ccc1Nc1ncc2c(n1)N(C)C(=O)N(c1cc(NC(=O)c3cccc(C(F)(F)F)c3)ccc1C)C2 [Compound 7, N-(3-(7-((2-Methoxy-4-morpholinophenyl)amino)-1-methyl-2-oxo-1,4-dihydropyrimido[4,5-d]pyrimidin-3(2H)-yl)-4-methylphenyl)-3-(trifluoromethyl)benzamide] | 588 ± 72 | 429 ± 80 | 871 ± 141 | 1680 ± 589 | 388 ± 45 | 1329 ± 5 | 480 ± 275 | 620 ± 153 | 733 ± 1 | 606 ± 68 | > 50 | 17400 ± 4220 | 3780 ± 1890 |
| Cc1ccc(NC(=O)c2cccc(C(F)(F)F)c2)cc1N1Cc2cnc(Nc3ccc(N4CCCCC4)cc3)nc2N(C)C1=O [Compound 1, N-(4-Methyl-3-(1-methyl-2-oxo-7-((4-(piperidin-1-yl)phenyl)amino)-1,4-dihydropyrimido[4,5-d]pyrimidin-3(2H)-yl)phenyl)-3-(trifluoromethyl)benzamide] | 586 ± 91 | – | 1380 ± 96 | 2020 ± 56 | 1040 ± 400 | 4510 ± 873 | 1240 ± 554 | 1120 ± 290 | 1310 ± 54 | 611 ± 65 | > 50 | > 50000 | > 50000 |

Continued, in another order:

| GI50 (Ba/F3-NRAS-G12D cells) [nM] | GI50 (Ba/F3-NRAS-G12V cells) [nM] | GI50 (H358 (KRAS-G12C)) [nM] | GI50 (AsPC-1 (KRAS-G12D)) [nM] | GI50 (DU-145 (KRAS-G12V)) [nM] | GI50 (SW480 (KRAS-G12V)) [nM] | GI50 (HCT-116 (KRAS-G13D)) [nM] | GI50 (MDA-MB-231 (KRAS-G13D)) [nM] | GI50 (HT-29 (KRAS-Q61L)) [nM] | GI50 (OCI-AML3 (NRAS-Q61L)) [nM] | GI50 [1] [µM] | GI50 (U937 (KRAS, NRAS-wt)) [nM] | Structure (SMILES) | GI50 (Ba/F3-parental cells) [nM] |
| --- | --- | --- | --- | --- | --- | --- | --- | --- | --- | --- | --- | --- | --- |
| 185 ± 15 | 259 ± 126 | 240 ± 42 | 318 ± 10 | 89 ± 47 | 286 ± 39 | 45 ± 16 | 108 ± 26 | 355 ± 54 | 103 ± 1 | > 50 | 7000 ± 1120 | Cc1ccc(NC(=O)c2cccc(C(F)(F)F)c2)cc1N1Cc2cnc(Nc3ccn(C)n3)nc2N(C)C1=O [Compound 11, N-(4-Methyl-3-(1-methyl-7-((1-methyl-1H-pyrazol-3-yl)amino)-2-oxo-1,4-dihydropyrimido[4,5-d]pyrimidin-3(2H)-yl)phenyl)-3-(trifluoromethyl)benzamid] | 1160 ± 330 |
| 569 ± 28 | 428 ± 161 | 2060 ± 1130 | 3170 ± 244 | 1170 ± 124 | 2050 ± 51 | 1530 ± 390 | 646 ± 68 | 3250 ± 176 | 374 ± 24 | > 50 | 2870 ± 142 | Cc1ccc(Nc2ncc3c(n2)N(C)C(=O)N(c2cc(NC(=O)c4cccc(C(F)(F)F)c4)ccc2C)C3)c(C)n1 [Compound 6, N-(3-(7-((2,6-Dimethylpyridin-3-yl)amino)-1-methyl-2-oxo-1,4-dihydropyrimido[4,5-d]pyrimidin-3(2H)-yl)-4-methylphenyl)-3-(trifluoromethyl)benzamide] | 1470 ± 317 |
| 120 ± 39 | 134 ± 45 | 265 ± 4 | 136 ± 11 | 30 ± 8 | 382 ± 52 | 18 ± 6 | 49 ± 12 | 227 ± 12 | 80 ± 16 | > 50 | 2220 ± 163 | Cc1ccc(NC(=O)c2cccc(C(F)(F)F)c2)cc1N1Cc2cnc(Nc3ccc(N4CCOCC4)cc3)nc2N(C)C1=O [Compound 3, N-(4-Methyl-3-(1-methyl-7-((4-morpholinophenyl)amino)-2-oxo-1,4-dihydropyrimido[4,5-d]pyrimidin-3(2H)-yl)phenyl)-3-(trifluoromethyl)benzamide] | 1060 ± 55 |
| 230 ± 129 | 213 ± 53 | 236 ± 29 | 135 ± 18 | 32 ± 14 | 163 | 25 ± 10 | 83 ± 22 | 126 ± 2 | 44 ± 14 | 26.1 ± 7.9 | 1040 ± 225 | CCN1CCN(c2ccc(Nc3ncc4c(n3)N(C)C(=O)N(c3cc(NC(=O)c5cccc(C(F)(F)F)c5)ccc3C)C4)cc2)CC1 [Compound 4, N-(3-(7-((4-(4-Ethylpiperazin-1-yl)phenyl)amino)-1-methyl-2-oxo-1,4-dihydropyrimido[4,5-d]pyrimidin-3(2H)-yl)-4-methylphenyl)-3-(trifluoromethyl)benzamide] | 857 ± 108 |
| 122 ± 1 | 216 ± 5 | 106 ± 12 | 275 ± 47 | 34 ± 25 | 532 ± 150 | 66 ± 55 | 71 ± 18 | 131 ± 4 | 46 ± 16 | > 50 | 934 ± 57 | COCCn1cc(Nc2ncc3c(n2)N(C)C(=O)N(c2cc(NC(=O)c4cccc(C(F)(F)F)c4)ccc2C)C3)cn1 [Compound 12, N-(3-(7-((1-(2-Methoxyethyl)-1H-pyrazol-4-yl)amino)-1-methyl-2-oxo-1,4-dihydropyrimido[4,5-d]pyrimidin-3(2H)-yl)-4-methylphenyl)-3-(trifluoromethyl)benzamide] | 1160 ± 424 |
